The target of this assay is T1, human IL-17AA (Homo sapiens, UniProt Q16552).
T1 construct: host or cells: HEK (human embryonic kidney) cells
T1 sequence (Q16552 24-155): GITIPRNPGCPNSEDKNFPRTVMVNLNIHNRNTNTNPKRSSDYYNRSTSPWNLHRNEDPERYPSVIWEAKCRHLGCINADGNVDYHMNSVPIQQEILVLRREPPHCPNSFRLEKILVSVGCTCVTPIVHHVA
The assay is described as follows: IL-8 release assay in human epithelial keratinocytes adult (HEKa). The format is cell-based. The note with it: HEKa cells, 3 ng/mL HEK-human IL-17AA + 10 ng/mL human TNFalpha; read-out: Rel EC50 IL-8 release assay. The method, boiled down: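 Adult human epidermal keratinocytes stimulated 68-72 h at 37 °C with 3 ng/mL HEK-derived human IL-17AA plus 10 ng/mL TNF-alpha (final) in the presence of compound; TNF-alpha alone defines 100% inhibition. Secreted IL-8 measured by HTRF as percent of controls; relative IC50/Emax from four-parameter fit (r^2>0.9), cytotoxicity by PrestoBlue.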

pEC50: −log10 of the molar value.

Turning to `Cc1n[nH]c(C)c1-c1ccc(NC(=O)[C@@H](NC(=O)c2ccnn2C)C(C)CC2CC2)cc1` (single isomer, unassigned) [Example 160], the negative logarithm of the EC50 (pEC50) (as a rule, the EC50 on a negative log10 scale, so that one unit is a factor of ten) was 6.00 to 7.00.
Turning to `Cc1ncn(C)c1-c1ccc(NC(=O)[C@@H](NC(=O)c2ccnn2C)C(c2ccccc2)c2ccccc2)cc1` [Example 338, N-[(1S)-1-benzhydryl-2-[4-(3,5-dimethylimidazol-4-yl)anilino]-2-oxo-ethyl]-2-methyl-pyrazole-3-carboxamide], the pEC50 is 6.00 to 7.00.
In the case of `CC[C@H](C)[C@H](NC(=O)c1ccnn1CC)C(=O)Nc1ccc(-c2c(C)n[nH]c2C)cc1` [Example 109, N-[(1S,25)-1-[[4-(3,5-dimethyl-1H-pyrazol-4-yl)phenyl]carbamoyl]-2-methyl-butyl]-2-ethyl-pyrazole-3-carboxamide] it was 6.00 to 7.00; in that of `Cc1n[nH]c(C)c1-c1ccc(NC(=O)[C@@H](NC(=O)c2cncn2C)C2CCCCC2)cc1` [Example 49, N-[(1S)-1-cyclohexyl-2-[4-(3,5-dimethyl-1H-pyrazol-4-yl)anilino]-2-oxo-ethyl]-3-methyl-imidazole-4-carboxamide], below 6.00.
Then `Cc1n[nH]c(C)c1-c1ccc(NC(=O)[C@@H](NC(=O)N2CCCCC2CCO)C2CCCCC2)cc1` (single isomer, unassigned) [Example 471], with below 6.00; and `Cc1n[nH]c(C)c1-c1ccc(NC(=O)[C@@H](NC(=O)C(F)(F)c2ccccc2)C2CCCCC2)cc1` [Example 55, N-[(1S)-1-cyclohexyl-2-[4-(3,5-dimethyl-1H-pyrazol-4-yl)anilino]-2-oxo-ethyl]-2,2-difluoro-2-phenyl-acetamide], with 6.00 to 7.00.
On to `Cc1n[nH]c(C)c1-c1ccc(NC(=O)C(NC(=O)c2ccnn2C(C)C(C)O)C(C2CC2)C2CC2)cc1` (mixture of isomers) [Example 161, N-[(1S)-1-(dicyclopropylmethyl)-2-[4-(3,5-dimethyl-1H-pyrazol-4-yl)anilino]-2-oxo-ethyl]-2-[(1S,25) and (1R,2R)-2-hydroxy-1-methyl-propyl]pyrazole-3-carboxamide], for which the negative logarithm of the EC50 (pEC50) was below 6.00.
As to `Cc1n[nH]c(C)c1-c1ccc(NC(=O)[C@@H](NC(=O)c2ccnn2C)C2CCCCC2)cc1O` [Example 412, N-[(1S)-1-cyclohexyl-2-[4-(3,5-dimethyl-1H-pyrazol-4-yl)-3-hydroxy-anilino]-2-oxo-ethyl]-2-methyl-pyrazole-3-carboxamide], the negative-log EC50 (pEC50) was above 7.00.
In the case of `Cc1n[nH]c(C)c1-c1ccc(NC(=O)[C@@H](NC(=O)c2ccnn2C(C)CCO)C(C2CC2)C2CC2)cc1` (single isomer, unassigned) [Example 225], the pEC50 is above 7.00.
On to `Cc1n[nH]c(C)c1-c1ccc(NC(=O)[C@@H](NC(=O)c2cnc(C)n2C)C2CCCCC2)cc1` [Example 48, N-[(1S)-1-cyclohexyl-2-[4-(3,5-dimethyl-1H-pyrazol-4-yl)anilino]-2-oxo-ethyl]-2,3-dimethyl-imidazole-4-carboxamide], for which the negative-log EC50 (pEC50) is below 6.00.
`CCc1n[nH]c(CC)c1-c1ccc(NC(=O)[C@@H](NC(=O)c2ccnn2C(C)C)C(C2CC2)C2CC2)cc1O` [Example 418, N-[(1S)-1-(dicyclopropylmethyl)-2-[4-(3,5-diethyl-1H-pyrazol-4-yl)-3-hydroxy-anilino]-2-oxo-ethyl]-2-isopropyl-pyrazole-3-carboxamide]: the pEC50 is above 7.00.
For `Cc1n[nH]c(C)c1-c1ccc(NC(=O)[C@@H](NC(=O)c2ccnn2C)[C@H]2CCc3ccc(C#N)cc32)cc1` [Example 80, N-[(1S)-1-[(1S)-6-cyanoindan-1-yl]-2-[4-(3,5-dimethyl-1H-pyrazol-4-yl)anilino]-2-oxo-ethyl]-2-methyl-pyrazole-3-carboxamide], the pEC50 was 6.00 to 7.00.
Consider `Cc1n[nH]c(C)c1-c1ccc(NC(=O)[C@@H](NC(=O)c2ccnn2C(C)CO)[C@@H]2CC(C)(C)CCC2(F)F)cc1` (single isomer, unassigned) [Example 211], for which the pEC50 is above 7.00.
For the compound `CC(C)n1nccc1C(=O)N[C@H](C(=O)Nc1ccc(-c2c(C3CC3)ncn2C)cc1)C(C1CC1)C1CC1` [Example 402, N-[(1S)-2,2-dicyclopropyl-1-[[4-(5-cyclopropyl-3-methyl-imidazol-4-yl)phenyl]carbamoyl]ethyl]-2-isopropyl-pyrazole-3-carboxamide], the negative-log EC50 (pEC50) is 6.00 to 7.00.
On to `Cc1n[nH]c(C)c1-c1ccc(NC(=O)[C@H](CC2CC2)NC(=O)c2ccnn2C)cc1` [Example 243, N-[(1S)-1-(cyclopropylmethyl)-2-[4-(3,5-dimethyl-1H-pyrazol-4-yl)anilino]-2-oxo-ethyl]-2-methyl-pyrazole-3-carboxamide], for which the pEC50 was below 6.00.
With `Cc1n[nH]c(C(C)O)c1-c1ccc(NC(=O)[C@@H](NC(=O)C2(F)CC2)C(c2ccccc2)c2ccccc2)cc1` (stereo partly drawn) [Example 442, N-[(1S)-1-benzhydryl-2-[4-[5-(1-hydroxyethyl)-3-methyl-1H-pyrazol-4-yl]anilino]-2-oxo-ethyl]-1-fluoro-cyclopropanecarboxamide], the pEC50 is 6.00 to 7.00.
On to `Cc1n[nH]c(C)c1-c1ccc(NC(=O)[C@@H](NC(=O)c2ccnn2C(C)C)C2CCCCC2)cc1` [Example 10, N-[(1S)-1-cyclohexyl-2-[4-(3,5-dimethyl-1H-pyrazol-4-yl)anilino]-2-oxo-ethyl]-2-isopropyl-pyrazole-3-carboxamide], for which the negative-log EC50 (pEC50) was above 7.00.
As for `Cc1n[nH]c(C)c1-c1ccc(NC(=O)[C@@H](NC(=O)c2ccnn2C)[C@@H]2CCCC3(CC3)C2)cc1` [Example 241, N-[(1S)-2-[4-(3,5-dimethyl-1H-pyrazol-4-yl)anilino]-2-oxo-1-[(7R)-spiro[2.5]octan-7-yl]ethyl]-2-methyl-pyrazole-3-carboxamide], the negative logarithm of the EC50 (pEC50) is 6.00 to 7.00.
`Cc1n[nH]c(C)c1-c1ccc(NC(=O)C(NC(=O)c2ccnn2C)C2CCCCCCC2)cc1` (single isomer, unassigned) [Example 157, N-[1-cyclooctyl-2-[4-(3,5-dimethyl-1H-pyrazol-4-yl)anilino]-2-oxo-ethyl]-2-methyl-pyrazole-3-carboxamide]: the pEC50 was below 6.00.
Consider `Cc1ncn(C)c1-c1ccc(NC(=O)[C@@H](NC(=O)c2ccnn2C(C)C)C(C2CC2)C2CC2)cc1O` [Example 363, N-[(1S)-1-(dicyclopropylmethyl)-2-[4-(3,5-dimethylimidazol-4-yl)-3-hydroxy-anilino]-2-oxo-ethyl]-2-isopropyl-pyrazole-3-carboxamide], for which the pEC50 is above 7.00.
Consider `Cc1n[nH]c(C)c1-c1ccc(NC(=O)[C@@H](NC(=O)c2ccnn2C)C2[C@H]3CCC[C@@H]23)cc1` (stereo partly drawn) [Example 267, N-[(1S)-1-[(1S,5R)-6-bicyclo[3.1.0]hexanyl]-2-[4-(3,5-dimethyl-1H-pyrazol-4-yl)anilino]-2-oxo-ethyl]-2-methyl-pyrazole-3-carboxamide], for which the pEC50 is below 6.00.
Take `Cc1ncoc1-c1ccc(NC(=O)[C@@H](NC(=O)c2ccnn2C(C)C)C(C2CC2)C2CC2)cc1` [Example 361, N-[(1S)-1-(dicyclopropylmethyl)-2-[4-(4-methyloxazol-5-yl)anilino]-2-oxo-ethyl]-2-isopropyl-pyrazole-3-carboxamide]: the pEC50 was 6.00 to 7.00.
With `Cc1n[nH]c(C)c1-c1ccc(NC(=O)[C@@H](NC(=O)c2ccnn2C)C2C[C@@H](C)C[C@@H](C)C2)cc1` (single isomer, unassigned) [Example 268], the pEC50 was above 7.00.
Take `Cc1nocc1C(=O)N[C@H](C(=O)Nc1ccc(-c2c(C)n[nH]c2C)cc1)C1CCCCC1` [Example 58, N-[(1S)-1-cyclohexyl-2-[4-(3,5-dimethyl-1H-pyrazol-4-yl)anilino]-2-oxo-ethyl]-3-methyl-isoxazole-4-carboxamide]: the negative logarithm of the EC50 (pEC50) was 6.00 to 7.00.
Then `Cc1n[nH]c(C)c1-c1ccc(NC(=O)[C@@H](NC(=O)c2c[nH]c3cnccc23)C2CCCCC2)cc1` [Example 64, N-[(1S)-1-cyclohexyl-2-[4-(3,5-dimethyl-1H-pyrazol-4-yl)anilino]-2-oxo-ethyl]-1H-pyrrolo[2,3-c]pyridine-3-carboxamide], with 6.00 to 7.00.
As for `Cc1n[nH]c(C)c1-c1ccc(NC(=O)[C@@H](NC(=O)c2cnnn2C)C2CCCCCC2)cc1` [Example 62, N-[(1S)-1-cycloheptyl-2-[4-(3,5-dimethyl-1H-pyrazol-4-yl)anilino]-2-oxo-ethyl]-3-methyl-triazole-4-carboxamide], the pEC50 is 6.00 to 7.00.
Turning to `Cc1n[nH]c(C)c1-c1ccc(NC(=O)C(NC(=O)c2ccnn2C)C2CCc3c(F)cccc32)cc1` (single isomer, unassigned) [Example 247], the negative-log EC50 (pEC50) is above 7.00.
Take `Cc1n[nH]c(C)c1-c1ccc(NC(=O)C(NC(=O)c2ccnn2C)C2CCCC2C)cc1` (racemic) [Example 252, N-[2-[4-(3,5-dimethyl-1H-pyrazol-4-yl)anilino]-1-(2-methylcyclopentyl)-2-oxo-ethyl]-2-methyl-pyrazole-3-carboxamide]: the negative logarithm of the EC50 (pEC50) was 6.00 to 7.00.
Consider `Cc1ncc(CC(=O)N[C@H](C(=O)Nc2ccc(-c3c(C)n[nH]c3C)cc2)C2CCCCC2)s1` [Example 52, (2S)-2-cyclohexyl-N-[4-(3,5-dimethyl-1H-pyrazol-4-yl)phenyl]-2-[[2-(2-methylthiazol-5-yl)acetyl]amino]acetamide], for which the negative logarithm of the EC50 (pEC50) was below 6.00.
As to `Cc1ncn(C)c1-c1ccc(NC(=O)[C@@H](NC(=O)OC(C)(C)C)C2CCCCCC2)cc1` [Example 88, tert-butyl N-[(1S)-1-cycloheptyl-2-[4-(3,5-dimethylimidazol-4-yl)anilino]-2-oxo-ethyl]carbamate], the pEC50 is 6.00 to 7.00.
